Source: patent US20220017833A1, “Methods and Compositions for Scavenging Sulfides from Hydrocarbon Fluids and Aqueous Streams” (Nexgen Oilfield Chemicals, LLC, priority 2019, published 2022)

Tests used:
[1] = Short Reaction Time Capacity Test; conditions: for Min/Eq BT / Min/Eq FD / Min to BT / Min to FD: 20 g test; for Min to BT / Min to FD: 3.00 g BuOH, GIDA 6.68 g as GID, 3.32 g water
Source text: (§1) Referring now to FIG. 1, therein is schematically depicted a sulfide scavenger testing system 100 comprising a gas source 2, a flow regulator 4, gas treatment vessel 6, and a sulfide measurement device 8. In one testing embodiment, gas (not shown) is flowed from gas source 2 via gas feed piping 10 into flow regulator 4, which regulates gas flow to gas treatment vessel 6 via regulated gas feed piping 12. The regulated gas flows into gas treatment vessel 6 via a bottom inlet 14 thereof, where it comes into contact with a volume of liquid 16 comprising a sulfide scavenger system (not separately labeled). The gas, having been treated by the liquid, flows out of a top end 18 of gas treatment vessel 6 and flows into sulfide measurement device 8 via treated gas outlet piping 20.
In one embodiment, gas flow from the flow regulator 4 is controlled such that the gas is flowed into the gas treatment vessel 6 at a flow rate of 100 mL/min. up to 500 mL/min. In one embodiment, a gas sparging device, such as a fine pore frit (not shown), is utilized to better distribute the gas into the scavenger liquid. In one embodiment, the gas treatment vessel 6 contains about 20 g of a liquid H2S scavenger, such as one or more diaminols/diaminacetals in a chemical system as described above. In one aspect, to the extent possible, H2S and/or CO2 are scavenged from the gas by the scavenger and the treated (“sweet”) gas exits top end 18 of treatment vessel 6. In one embodiment, sulfide measurement device 8 monitors the concentration of H2S leaving treatment vessel 6. in the gas phase. In other embodiments (not shown), a CO2 measurement device may be similarly employed to monitor the concentration of CO2 leaving treatment vessel 6 in the gas phase.
(§2) In one embodiment, gas is flowed through sulfide scavenger testing system 100 until the outlet H2S concentration reaches a 4,000 ppm target, at which point the test is concluded. This relative time duration before the target is reached is used to compare H2S scavenger capacity given the kinetics of each sulfide scavenger system. The longer the duration, the better the capacity.
(§3) The fine bubbles produced rise slowly, providing plenty of time, plenty of surface area, and a short path through which the H2S must diffuse to the scavenger in the liquid 16. Detector 8 on the outlet line 20 is used to measure H2S concentration in the exiting gas. The times to first detection (FD), at a threshold of 15 ppm, and to complete breakthrough (BT), at the detector saturation of 4000 ppm (0.4%), are recorded. This test is designed to measure the effective scavenging capacity in applications with long contact times.
This test is the same as the Long Reaction Time Capacity Test, but without the gas sparging device, so as to produce larger bubbles, and at a higher feed rate of 200 mL/min, after the first 8 minutes at 100 mL/min. The larger bubbles rise quickly through the liquid 16, providing little time, little surface area, and a long path through which the H2S must diffuse to the scavenger in the liquid. This test is designed to measure the effective scavenging capacity in applications with short contact times. It is far more reaction rate dependent than the Long Reaction Time Capacity and so is a more critical and differentiating test.
With triazine, one H2S reacts twice with the same molecule of triazine, replacing one amine, so the rate is “first order”, meaning proportional to the concentration of triazine.

[2] = Long Reaction Time Capacity Test; conditions: for Min/Eq BT / Min/Eq FD / Min to BT / Min to FD: 20 g test
Source text: as §1
In one embodiment, the gas contained in gas source 2 consists substantially of about 15% H2S, and about 3% CO2, with the remainder being Methane. In one embodiment, gas flow from the flow regulator 4 is controlled such that the gas is flowed into the gas treatment vessel 6 at a flow rate of 100 mL/min. up to 500 mL/min. In one embodiment, a gas sparging device, such as a fine pore frit (not shown), is utilized to better distribute the gas into the scavenger liquid. In one embodiment, the gas treatment vessel 6 contains about 20 g of a liquid H2S scavenger, such as one or more diaminols/diaminacetals in a chemical system as described above. In one aspect, to the extent possible, H2S and/or CO2 are scavenged from the gas by the scavenger and the treated (“sweet”) gas exits top end 18 of treatment vessel 6. In one embodiment, sulfide measurement device 8 monitors the concentration of H2S leaving treatment vessel 6. in the gas phase. In other embodiments (not shown), a CO2 measurement device may be similarly employed to monitor the concentration of CO2 leaving treatment vessel 6 in the gas phase.
as §2
as §3, with “In this test, methane containing 15% H2S and 3% CO2 by weight is sparged via a fine pore frit (not shown) at 100 mL/min through a column of 20 g of scavenger solution (See FIG. 1). The fine” for “The fine”
Note that the true total capacity of a scavenger with infinite time to react is simply equal to the stoichiometry of the reaction—the moles of H2S consumable per mole of scavenging molecule, which can be calculated. This Long Reaction Time Capacity measurement falls short of that ultimate stoichiometric capacity and so is still reaction rate dependent, just less so than the Short Reaction Time Capacity Test.

[3] = operational testing in a natural gas production facility; conditions: natural gas production facility
Experimental: In operational testing in a natural gas production facility, both an anhydrous glyoxy isopropyl aminacetal (GIDAc) scavenging system and an aqueous glyoxy isopropyl diaminol (GIDA) scavenging system were tested in comparison with an industry standard triazine-based scavenger.

[4] = Eq/test GIDAc 0.114, GIDA 0.076 (8.00 g MeOH, 2.00 g BuOH)
[5] = Eq/test Triazine 0.068, GIDAc 0.157, GIDA 0.076 (7.50 g MeOH, 2.50 g BuOH)
[6] = GIDAc 8.00 g as GID, 9.00 g MeOH, 8.00 g MeOH, 2.00 g BuOH
[7] = Triazine 7.50 g + 12.50 g water, GIDAc 11.00 g as GID, 6.00 g MeOH, 7.50 g MeOH, 2.50 g BuOH
[8] = Short Reaction Time Capacity Test, Table 2 compositions
[9] = Eq/test Triazine 0.068, GIDAc 0.185, GIDA 0.076
[10] = GIDAc 9.00 g as GID + 11.00 g MeOH
[11] = Triazine 7.50 g + 12.50 g water, GIDAc 13.00 g as GID + 7.00 g MeOH, GIDA 6.68 g as GID, 3.32 g water, 8.00 g MeOH, 2.00 g BuOH

## COC(NC(C)C)C(NC(C)C)OC (stereo not drawn) [GIDAc]
[1]; [4]
  Min/Eq BT: 438 Min/Eq
  Min/Eq FD: 368 Min/Eq
[1]; [5]
  Min/Eq BT: 376 Min/Eq
  Min/Eq FD: 319 Min/Eq
[1]; [6]
  Min to BT: 50 min
  Min to FD: 42 min
[1]; [7]
  Min to BT: 59 min
  Min to FD: 50 min
[1]; Graph 1 (FIG. 3)
  molar capacity at short reaction times (comparison, accounting for molar concentration): lower molar capacity at short reaction times
[1]; [8]
  contribution to the BT capacity (coefficient of best fit equation): 404 minutes per equivalent
  contribution to the FD capacity (coefficient of best fit equation): 324 minutes per equivalent
[2]; [9]
  Min/Eq BT: 707 Min/Eq
  Min/Eq FD: 566 Min/Eq
[2]; GIDAc 0.128 Eq/test
  Min/Eq BT: 771 Min/Eq
  Min/Eq FD: 592 Min/Eq
[2]; [10]
  Min to BT: 99 min
  Min to FD: 76 min
[2]; [11]
  Min to BT: 131 min
  Min to FD: 105 min
[2]; Graph 1 (FIG. 3)
  molar capacity at long reaction times (comparison, accounting for molar concentration): the same capacity as GIDA at long reaction times
[3]
  employable in scavenging H2S from natural gas: employable
